Legend:
Type in all cases: in vivo
[1] = test system: goosegrass (Eleusine indica); assay: Test A postemergence, goosegrass; conditions: 10 days
Source text: (§1) Seeds of plant species selected from barnyardgrass (Echinochloa crus-galli), blackgrass (Alopecurus myosuroides), corn (Zea mays), foxtail, giant (giant foxtail, Setaria faberi), foxtail, green (green foxtail, Setaria viridis), goosegrass (Eleusine indica), kochia (Bassia scoparia), oat, wild (wild oat, Avena fatua), palmer amaranth (pigweed, palmer, Amaranthus palmeri), redroot pigweed (Amaranthus retroflexus), ragweed (common ragweed, Ambrosia artemisiifolia), ryegrass, Italian (Italian ryegrass, Lolium multiflorum), and soybean (Glycine max) were planted into a blend of loam soil and sand and treated preemergence with a directed soil spray using test chemicals formulated in a non-phytotoxic solvent mixture which included a surfactant.
(§2) At the same time, plants selected from these crop and weed species and also wheat (Triticum aestivum), galium (catchweed bedstraw, Galium aparine) and horseweed (Erigeron canadensis) were planted in pots containing the same blend of loam soil and sand and treated with postemergence applications of test chemicals formulated in the same manner. Plants ranged in height from 2 to 10 cm and were in the one- to two-leaf stage for the postemergence treatment. Treated plants and untreated controls were maintained in a greenhouse for 10 days, after which time all treated plants were compared to untreated controls and visually evaluated for injury. Plant response ratings, summarized in Table A, are based on a 0 to 100 scale where 0 is no effect and 100 is complete control. A dash (-) response means no test result.

rice (Oryza sativa) = assay: Test B flooded paddy test, rice; conditions: 250 g ai/ha, Flood; visually evaluated after 10 to 14 days
Outline: (§3)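 Application into floodwater (3 cm over soil) at the 2-leaf stage, with the depth held constant, followed by greenhouse growth for 10–14 days. Percent control was estimated visually versus controls, where 100 is complete control.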

[2] = test system: ragweed (common ragweed, Ambrosia artemisiifolia); assay: Test A postemergence, ragweed; conditions: 10 days
Outline: (§4)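 Visual injury rating on a 0–100 scale (100 = complete control) versus untreated plants after 10 days in greenhouse. Treatments: directed soil spray preemergence after sowing in loam/sand, or postemergence on one- to two-leaf plants 2–10 cm high; surfactant-containing non-phytotoxic solvent formulation.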

[3] = test system: ryegrass, Italian (Italian ryegrass, Lolium multiflorum); assay: Test A postemergence, ryegrass, Italian; conditions: 10 days
Outline: as §4

[4] = test system: barnyardgrass (Echinochloa crus-galli); assay: Test B flooded paddy test, barnyardgrass; conditions: 250 g ai/ha, Flood; visually evaluated after 10 to 14 days
Outline: as §3

soybean (Glycine max) [5] = assay: Test A preemergence, soybean; conditions: 0 to 100 scale, 10 days
Source text: as §1, §2

corn (Zea mays) [6] = assay: Test A postemergence, corn; conditions: 10 days
Outline: as §4

[7] = test system: galium (catchweed bedstraw, Galium aparine); assay: Test A postemergence, galium; conditions: 10 days
Outline: as §4

[8] = test system: oat, wild (wild oat, Avena fatua); assay: Test A postemergence, oat, wild; conditions: 10 days
Source text: as §1, §2

[9] = test system: blackgrass (Alopecurus myosuroides); assay: Test A postemergence, blackgrass; conditions: 10 days
Outline: as §4

[10] = test system: wheat (Triticum aestivum); assay: Test A preemergence, wheat; conditions: 125 g ai/ha, 0 to 100 scale, 10 days
[11] = test system: ducksalad (Heteranthera limosa); assay: Test B flooded paddy test, ducksalad; conditions: 250 g ai/ha, Flood; visually evaluated after 10 to 14 days
Outline: as §3

[12] = test system: goosegrass (Eleusine indica); assay: Test A preemergence, goosegrass; conditions: 0 to 100 scale, 10 days
Source text: as §1, §2

[13] = test system: ryegrass, Italian (Italian ryegrass, Lolium multiflorum); assay: Test A preemergence, ryegrass, Italian; conditions: 0 to 100 scale, 10 days
Outline: as §4

[14] = test system: foxtail, giant (giant foxtail, Setaria faberi); assay: Test A preemergence, foxtail, giant; conditions: 0 to 100 scale, 10 days
Outline: as §4

[15] = test system: oat, wild (wild oat, Avena fatua); assay: Test A preemergence, oat, wild; conditions: 0 to 100 scale, 10 days
Source text: as §1, §2

[16] = test system: ragweed (common ragweed, Ambrosia artemisiifolia); assay: Test A preemergence, ragweed; conditions: 0 to 100 scale, 10 days
Outline: as §4

[17] = test system: wheat (Triticum aestivum); assay: Test A postemergence, wheat; conditions: 10 days
Outline: as §4

[18] = test system: sedge, umbrella (small-flower umbrella sedge, Cyperus difformis); assay: Test B flooded paddy test, sedge, umbrella; conditions: 250 g ai/ha, Flood; visually evaluated after 10 to 14 days
Outline: as §3

[19] = test system: palmer amaranth (pigweed, palmer, Amaranthus palmeri); assay: Test A postemergence, palmer amaranth; conditions: 10 days
Source text: as §1, §2

kochia (Bassia scoparia) [20] = assay: Test A postemergence, kochia; conditions: 10 days
Outline: as §4

[21] = test system: palmer amaranth (pigweed, palmer, Amaranthus palmeri); assay: Test A preemergence, palmer amaranth; conditions: 0 to 100 scale, 10 days
Source text: as §1, §2

kochia (Bassia scoparia) [22] = assay: Test A preemergence, kochia; conditions: 0 to 100 scale, 10 days
Outline: as §4

[23] = test system: blackgrass (Alopecurus myosuroides); assay: Test A preemergence, blackgrass; conditions: 0 to 100 scale, 10 days
Source text: as §1, §2

[24] = test system: foxtail, giant (giant foxtail, Setaria faberi); assay: Test A postemergence, foxtail, giant; conditions: 10 days
Outline: as §4

soybean (Glycine max) [25] = assay: Test A postemergence, soybean; conditions: 10 days
Source text: as §1, §2

[26] = test system: horseweed (Erigeron canadensis); assay: Test A postemergence, horseweed; conditions: 10 days
Source text: as §1, §2

corn (Zea mays) [27] = assay: Test A preemergence, corn; conditions: 0 to 100 scale, 10 days
Source text: as §1, §2

[28] = 31 g ai/ha, postemergence, 0 to 100 scale (0 no effect, 100 complete control)
[29] = Postemergence, 125 g ai/ha, 0 to 100 scale

Cc1ccc2cc3ccc(F)cc3c(-c3c(OCOC(=O)OC(C)C)c(C)nn(C)c3=O)c2c1 [Compound 17]
Plant response rating, Goosegrass [1, 28]: 30 | Plant response rating, Goosegrass [1, 29]: 50 | Plant response rating, Rice (0 to 100 scale where 0 is no effect and 100 is complete control) (rice (Oryza sativa)): 45 | Plant response rating, Ragweed [2, 28]: 100 | Plant response rating, Ragweed [2, 29]: 100 | Plant response rating, Ryegrass, Italian [3, 28]: 70 | Plant response rating, Ryegrass, Italian [3, 29]: 100 | Plant response rating, Barnyardgrass (0 to 100 scale where 0 is no effect and 100 is complete control) [4]: 70 | Plant response rating, Soybean (soybean (Glycine max) [5]; 31 g ai/ha): 0 | Plant response rating, Soybean (soybean (Glycine max) [5]; 125 g ai/ha): 0 | Plant response rating, Corn (corn (Zea mays) [6]; [28]): 0 | Plant response rating, Corn (corn (Zea mays) [6]; [29]): 30 | Plant response rating, Galium [7, 28]: 100 | Plant response rating, Galium [7, 29]: 100 | Plant response rating, Oat, Wild [8, 28]: 10 | Plant response rating, Oat, Wild [8, 29]: 30 | Plant response rating, Blackgrass [9, 28]: 0 | Plant response rating, Blackgrass [9, 29]: 10 | Plant response rating, Wheat [10]: 0 | Plant response rating, Ducksalad (0 to 100 scale where 0 is no effect and 100 is complete control) [11]: 85 | Plant response rating, Goosegrass ([12]; 31 g ai/ha): 50 | Plant response rating, Goosegrass ([12]; 125 g ai/ha): 60 | Plant response rating, Ryegrass, Italian ([13]; 31 g ai/ha): 30 | Plant response rating, Ryegrass, Italian ([13]; 125 g ai/ha): 80 | Plant response rating, Foxtail, Giant ([14]; 31 g ai/ha): 100 | Plant response rating, Foxtail, Giant ([14]; 125 g ai/ha): 100 | Plant response rating, Oat, Wild ([15]; 31 g ai/ha): 0 | Plant response rating, Oat, Wild ([15]; 125 g ai/ha): 0 | Plant response rating, Ragweed ([16]; 31 g ai/ha): 100 | Plant response rating, Ragweed ([16]; 125 g ai/ha): 100 | Plant response rating, Wheat [17, 28]: 0 | Plant response rating, Wheat [17, 29]: 0 | Plant response rating, Sedge, Umbrella (0 to 100 scale where 0 is no effect and 100 is complete control) [18]: 85 | Plant response rating, Pigweed, Palmer [19, 28]: 90 | Plant response rating, Pigweed, Palmer [19, 29]: 100 | Plant response rating, Kochia (kochia (Bassia scoparia) [20]; [28]): 100 | Plant response rating, Kochia (kochia (Bassia scoparia) [20]; [29]): 100 | Plant response rating, Pigweed, Palmer ([21]; 31 g ai/ha): 100 | Plant response rating, Pigweed, Palmer ([21]; 125 g ai/ha): 100 | Plant response rating, Kochia (kochia (Bassia scoparia) [22]; 31 g ai/ha): 90 | Plant response rating, Kochia (kochia (Bassia scoparia) [22]; 125 g ai/ha): 90 | Plant response rating, Blackgrass ([23]; 31 g ai/ha): 0 | Plant response rating, Blackgrass ([23]; 125 g ai/ha): 20 | Plant response rating, Foxtail, Giant [24, 28]: 100 | Plant response rating, Foxtail, Giant [24, 29]: 100 | Plant response rating, Soybean (soybean (Glycine max) [25]; [28]): 60 | Plant response rating, Soybean (soybean (Glycine max) [25]; [29]): 80 | Plant response rating, Horseweed [26, 28]: 100 | Plant response rating, Horseweed [26, 29]: 100 | Plant response rating, Corn (corn (Zea mays) [27]; 31 g ai/ha): 0 | Plant response rating, Corn (corn (Zea mays) [27]; 125 g ai/ha): 30

From patent US12692238B2, “Substituted pyridazinone herbicides” (FMC CORPORATION, priority 2020, dated 2026)
